US9238656B2, “Imidazo[4,5-b]pyridine derivatives as ALK and JAK modulators for the treatment of proliferative disorders” (priority 2012, dated 2016)

Columns and labels:
[1] = target: baculovirus-expressed JAK2 kinase (Homo sapiens, UniProt O60674); test: biochemical; details: 0.2 μM ATP; read-out: JAK2 Potency
Procedure, shortened: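 IC50 derived by variable-slope sigmoidal fit of percent inhibition against log compound concentration. Baculovirus-expressed JAK2 (15 ng/mL) phosphorylated a plate-bound biotinylated 15-mer peptide for 20 min at room temperature; detection by time-resolved fluorescence.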

[2] = target: baculovirus-expressed ALK (Homo sapiens, UniProt Q9UM73); test: ALK kinase inhibition, TRF/ELISA; format: biochemical; details: read-out: ALK Potency
Procedure, shortened: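 Eu-PT66 anti-phosphotyrosine TRF read-out measured phosphorylation of plate-bound GST-PLC-γ (coated at 10 μg/mL). The phosphorylation was driven by 30 ng/mL ALK for 15 minutes at 37° C.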

baculovirus-expressed JAK2 kinase, sequence (O60674 whole entry): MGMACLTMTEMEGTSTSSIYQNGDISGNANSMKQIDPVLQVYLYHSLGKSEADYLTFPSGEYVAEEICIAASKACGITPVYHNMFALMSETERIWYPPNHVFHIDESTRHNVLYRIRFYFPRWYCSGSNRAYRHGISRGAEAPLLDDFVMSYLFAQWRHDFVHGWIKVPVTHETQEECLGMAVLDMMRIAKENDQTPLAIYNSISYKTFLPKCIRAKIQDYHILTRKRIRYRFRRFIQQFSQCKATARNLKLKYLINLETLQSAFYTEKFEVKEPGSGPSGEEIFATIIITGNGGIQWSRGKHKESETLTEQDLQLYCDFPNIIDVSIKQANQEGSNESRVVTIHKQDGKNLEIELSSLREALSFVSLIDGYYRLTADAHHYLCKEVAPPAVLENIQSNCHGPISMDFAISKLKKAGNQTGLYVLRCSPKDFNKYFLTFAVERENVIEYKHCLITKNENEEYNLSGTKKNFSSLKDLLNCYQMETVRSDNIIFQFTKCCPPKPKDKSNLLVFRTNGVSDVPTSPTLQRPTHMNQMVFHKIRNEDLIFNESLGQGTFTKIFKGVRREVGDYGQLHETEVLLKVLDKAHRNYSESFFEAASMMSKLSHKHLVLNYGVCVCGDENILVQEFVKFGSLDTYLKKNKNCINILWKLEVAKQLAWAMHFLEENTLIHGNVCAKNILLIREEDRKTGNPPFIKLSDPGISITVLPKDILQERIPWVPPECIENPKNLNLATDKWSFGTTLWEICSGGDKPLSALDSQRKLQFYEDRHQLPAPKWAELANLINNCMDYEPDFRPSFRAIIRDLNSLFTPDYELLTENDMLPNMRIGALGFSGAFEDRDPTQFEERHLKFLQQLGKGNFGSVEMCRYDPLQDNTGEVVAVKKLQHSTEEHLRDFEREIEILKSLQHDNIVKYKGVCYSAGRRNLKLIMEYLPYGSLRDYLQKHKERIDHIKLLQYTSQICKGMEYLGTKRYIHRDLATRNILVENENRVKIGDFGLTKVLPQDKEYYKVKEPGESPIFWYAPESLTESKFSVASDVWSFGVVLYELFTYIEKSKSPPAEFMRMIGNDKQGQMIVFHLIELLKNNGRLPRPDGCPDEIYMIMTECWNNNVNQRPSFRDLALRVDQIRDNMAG
baculovirus-expressed ALK, sequence (Q9UM73 19-1620): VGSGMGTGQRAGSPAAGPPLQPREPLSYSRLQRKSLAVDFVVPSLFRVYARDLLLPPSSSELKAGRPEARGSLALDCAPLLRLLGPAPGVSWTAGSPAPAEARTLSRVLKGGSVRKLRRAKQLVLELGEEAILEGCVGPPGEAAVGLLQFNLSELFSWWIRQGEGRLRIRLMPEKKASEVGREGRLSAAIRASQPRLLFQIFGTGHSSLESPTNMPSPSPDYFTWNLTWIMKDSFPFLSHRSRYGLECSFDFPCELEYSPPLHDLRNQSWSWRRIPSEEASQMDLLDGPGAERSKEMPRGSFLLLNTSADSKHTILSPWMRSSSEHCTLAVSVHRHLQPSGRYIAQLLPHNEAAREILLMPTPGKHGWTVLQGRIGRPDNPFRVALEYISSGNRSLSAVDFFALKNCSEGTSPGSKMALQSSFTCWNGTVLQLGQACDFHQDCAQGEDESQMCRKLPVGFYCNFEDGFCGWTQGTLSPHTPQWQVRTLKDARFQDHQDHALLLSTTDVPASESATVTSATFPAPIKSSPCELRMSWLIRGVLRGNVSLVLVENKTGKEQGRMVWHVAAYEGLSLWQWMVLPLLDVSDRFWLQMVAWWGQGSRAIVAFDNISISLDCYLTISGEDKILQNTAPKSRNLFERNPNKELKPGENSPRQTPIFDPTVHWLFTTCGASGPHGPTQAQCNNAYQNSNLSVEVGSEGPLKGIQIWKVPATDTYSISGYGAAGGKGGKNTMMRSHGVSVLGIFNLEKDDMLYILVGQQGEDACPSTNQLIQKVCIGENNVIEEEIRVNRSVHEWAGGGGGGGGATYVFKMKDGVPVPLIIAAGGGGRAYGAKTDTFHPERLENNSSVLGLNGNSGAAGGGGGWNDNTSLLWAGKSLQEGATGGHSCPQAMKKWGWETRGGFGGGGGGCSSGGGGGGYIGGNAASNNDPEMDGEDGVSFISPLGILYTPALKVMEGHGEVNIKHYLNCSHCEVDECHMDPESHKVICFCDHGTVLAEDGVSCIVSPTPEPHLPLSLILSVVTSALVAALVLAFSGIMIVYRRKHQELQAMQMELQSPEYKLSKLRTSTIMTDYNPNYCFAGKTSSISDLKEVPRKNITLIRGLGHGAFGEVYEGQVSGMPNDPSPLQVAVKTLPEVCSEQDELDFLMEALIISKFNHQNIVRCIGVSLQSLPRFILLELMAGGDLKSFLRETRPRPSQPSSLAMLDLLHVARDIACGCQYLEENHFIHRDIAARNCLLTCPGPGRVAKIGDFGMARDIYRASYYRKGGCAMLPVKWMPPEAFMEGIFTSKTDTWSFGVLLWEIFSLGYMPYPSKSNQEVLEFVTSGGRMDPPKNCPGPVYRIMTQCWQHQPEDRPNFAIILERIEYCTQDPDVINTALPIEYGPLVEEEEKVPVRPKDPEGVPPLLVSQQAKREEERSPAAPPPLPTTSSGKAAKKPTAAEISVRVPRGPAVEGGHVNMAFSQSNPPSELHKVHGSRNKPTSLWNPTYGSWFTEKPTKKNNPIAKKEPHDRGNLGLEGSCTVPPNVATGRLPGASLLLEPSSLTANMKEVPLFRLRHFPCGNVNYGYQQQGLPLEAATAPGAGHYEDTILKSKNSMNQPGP

Compound | IC50 [1] [nM] | IC50 [2] [nM] | melting point [°C]
CC(O)CN1CCN(C(=O)c2cccc(-c3nc4c(N[C@H]5[C@@H](C(N)=O)[C@@H]6C=C[C@H]5C6)c(Cl)cnc4[nH]3)c2)CC1 (stereo partly drawn) [Compound CCXXIII, (1S,2S,3R,4R)-3-(6-chloro-2-(3-(4-(2-hydroxypropyl)piperazine-1-carbonyl)phenyl)-3H-imidazo[4,5-b]pyridine-7-ylamino)pyridin[2.2.1]hept-5-ene-2-carboxamide] | < 100 | 100 to 1000 | 183
NC(=O)[C@@H]1[C@H](Nc2c(Cl)cnc3[nH]c(-c4ccc5c(c4)CCC4(CCNCC4)O5)nc23)[C@H]2C=C[C@@H]1C2 [Compound CXV, (1S,2S,3R,4R)-3-[(6-chloro-2-spiro[chromane-2,4′-piperidine]-6-yl-3H-imidazo[4,5-b]pyridin-7-yl)amino]bicyclo[2.2.1]hept-5-ene-2-carboxamide] | < 100 | < 100 | > 250
NC(=O)[C@@H]1[C@H](Nc2ccnc3[nH]c(-c4ccc(N5CCOCC5)cc4)nc23)[C@H]2C=C[C@@H]1C2 [Compound LXXXIX, (1S,2S,3R,4R)-3-[2-(4-Morpholin-4-yl-phenyl)-3H-imidazo[4,5-b]pyridin-7-ylamino]-bicyclo[2.2.1]hept-5-ene-2-carboxylic acid amide] | 1000 to 10000 | > 10000 | 240 to 244
COC[C@H](O)CN1CCC(c2ccc(-c3nc4c(N[C@H]5[C@@H](C(N)=O)[C@@H]6C=C[C@H]5C6)c(Cl)cnc4[nH]3)c(OC)c2)CC1 [Compound LIV] | < 100 | < 100 | 116 to 122
COc1ccc(-c2nc3c(N[C@H]4[C@@H](C(N)=O)[C@@H]5C=C[C@H]4C5)c(Cl)cnc3[nH]2)c(C2CCNCC2)c1 [Compound XXX, (1S,2S,3R,4R)-3-[6-Chloro-2-(4-methoxy-2-piperidin-4-yl-phenyl)-3H-imidazo[4,5-b]pyridine-7-ylamino]-bicyclo[2.2.1]hept-5-ene-2-carboxylic acid amide] | 100 to 1000 | 1000 to 10000 | 199 to 200
Cc1ccc(-c2nc3c(N[C@H]4[C@@H](C(N)=O)[C@@H]5C=C[C@H]4C5)c(Br)cnc3[nH]2)o1 [Compound CX, (1S,2S,3R,4R)-3-[6-Bromo-2-(5-methyl-furan-2-yl)-3H-imidazo[4,5-b]pyridin-7-ylamino]-bicyclo[2.2.1]hept-5-ene-2-carboxylic acid amide] | < 100 | 100 to 1000 | 200 to 201
COc1cc(N2CCC(N3CCOCC3)CC2)ccc1-c1nc2c(N[C@H]3[C@@H](C(N)=O)[C@@H]4C=C[C@H]3C4)c(Br)cnc2[nH]1 [Compound XCVII, (1S,2S,3R,4R)-3-{6-Bromo-2-[2-methoxy-4-(4-morpholin-4-yl-piperidin-1-yl)-phenyl]-3H-imidazo[4,5-b]pyridin-7-ylamino}-bicyclo[2.2.1]hept-5-ene-2-carboxylic acid amide] | < 100 | < 100 | 185 to 195
COc1ncccc1-c1nc2c(N[C@H]3[C@@H](C(N)=O)[C@@H]4C=C[C@H]3C4)c(Br)cnc2[nH]1 [Compound CI, (1S,2S,3R,4R)-3-[6-Bromo-2-(2-methoxy-pyridin-3-yl)-3H-imidazo[4,5-b]pyridin-7-ylamino]-bicyclo[2.2.1]hept-5-ene-2-carboxylic acid amide] | < 100 | < 100 | 201
NC(=O)[C@@H]1[C@H](Nc2c(Br)cnc3[nH]c(-c4ccccc4-n4cccn4)nc23)[C@H]2C=C[C@@H]1C2 [Compound CIV, (1S,2S,3R,4R)-3-[6-Bromo-2-(2-pyrazol-1-yl-phenyl)-3H-imidazo[4,5-b]pyridin-7-ylamino]-bicyclo[2.2.1]hept-5-ene-2-carboxylic acid amide] | 100 to 1000 | 1000 to 10000 | 120
Cn1cc(-c2nc3c(N[C@H]4[C@@H](C(N)=O)[C@@H]5C=C[C@H]4C5)ccnc3[nH]2)cn1 [XCIV, (1S,2S,3R,4R)-3-[2-(1-Methyl-1H-pyrazol-4-yl)-3H-imidazo[4,5-b]pyridin-7-ylamino]-bicyclo[2.2.1]hept-5-ene-2-carboxylic acid amide] | 1000 to 10000 | > 10000 | 236 to 238
Cn1cccc1-c1nc2c(N[C@H]3[C@@H](C(N)=O)[C@@H]4C=C[C@H]3C4)c(Br)cnc2[nH]1 [Compound CIX, (1S,2S,3R,4R)-3-[6-Bromo-2-(1-methyl-1H-pyrrol-2-yl)-3H-imidazo[4,5-b]pyridin-7-ylamino]-bicyclo[2.2.1]hept-5-ene-2-carboxylic acid amide] | < 100 | < 100 | 293 to 295
COc1cc(CN2CCN(C(C)=O)CC2)ccc1-c1nc2c(N[C@H]3[C@@H](C(N)=O)[C@@H]4C=C[C@H]3C4)c(Cl)cnc2[nH]1 [Compound LI] | < 100 | < 100 | 109 to 113
CN1CCN(c2ccc(-c3nc4c(N[C@@H]5[C@H]6CC[C@H](C6)[C@@H]5C(N)=O)c(Br)cnc4[nH]3)cc2)CC1 [Compound CXIII, (1R,2S,3R,4S)-3-{6-Bromo-2-[4-(4-methyl-piperazin-1-yl)-phenyl]-3H-imidazo[4,5-b]pyridin-7-ylamino}-bicyclo[2.2.1]heptane-2-carboxylic acid amide] | < 100 | < 100 | 256 to 258
NC(=O)[C@@H]1[C@H](Nc2c(Br)cnc3[nH]c(-c4ccsc4)nc23)[C@H]2C=C[C@@H]1C2 [Compound CXI, (1S,2S,3R,4R)-3-(6-Bromo-2-thiophen-3-yl-3H-imidazo[4,5-b]pyridin-7-ylamino)-bicyclo[2.2.1]hept-5-ene-2-carboxylic acid amide] | < 100 | < 100 | 238 to 241
COc1c(CN2CCOCC2)cccc1-c1nc2c(N[C@H]3[C@@H](C(N)=O)[C@@H]4C=C[C@H]3C4)c(Cl)cnc2[nH]1 [Compound LIII, (1S,2S,3R,4R)-3-[6-Chloro-2-(2-methoxy-3-morpholin-4-ylmethyl-phenyl)-3H-imidazo[4,5-b]pyridine-7-ylamino]-bicyclo[2.2.1]hept-5-ene-2-carboxylic acid amide] | < 100 | < 100 | 133 to 137
NC(=O)[C@@H]1[C@H](Nc2c(Cl)cnc3[nH]c(-c4cccc(C(=O)N5CCNC(C(=O)O)C5)c4)nc23)[C@H]2C=C[C@@H]1C2 (stereo partly drawn) [Compound CCXXV, 4-(3-(7-((1R,2R,3S,4S)-3-carbamoylbicyclo[2.2.1]hept-5-en-2-ylamino)-6-chloro-3H-imidazo[4,5-b]pyridine-2-yl)benzoyl)piperazine-2-carboxylic acid] | < 100 | 100 to 1000 | 261
NC(=O)[C@@H]1[C@H](Nc2c(Cl)cnc3[nH]c(-c4cccc(C(=O)NC(CO)C(=O)O)c4)nc23)[C@H]2C=C[C@@H]1C2 (stereo partly drawn) [Compound CCXXIX, 2-(3-(7-((1R,2R,3S,4S)-3-carbamoylbicyclo(2.2.1)hept-5-en-2-ylamino)-6-chloro-3H-imidazo[4,5-b]pyridine-2-yl)benzamido)-3-hydroxypropanoic acid] | < 100 | 1000 to 10000 | 243
